Experiment: method code SF-HPLC, from DOI: 10.1016/j.ecoenv.2011.11.024
Conditions: pH 2.0
Molecule `Cc1ccccc1S` has a logD of 3.52.
In the case of `Fc1ccccc1S`, the logD is reported as 1.9.
Molecule `COc1ccc(S)cc1OC` has a logD of 3.32.
Work on `Sc1ccc(Br)cc1` yielded a logD of 2.72.
`Sc1cccc(Cl)c1` gave a logD of 2.47.
Molecule `Sc1cc(Cl)cc(Cl)c1` has a logD of 2.43.
With `Sc1cc(Cl)ccc1Cl` the logD was 2.48.
For `Sc1ccccc1Br`, the logD was 2.44.
For `Fc1cc(F)c(F)c(S)c1F`, the logD was 1.76.
For `Cc1cccc(C)c1S`, the logD was 4.02.
`Sc1ccccc1Cl` gave a logD of 2.27.
Work on `Sc1ccc(Cl)cc1` yielded a logD of 2.66.
Work on `Fc1cccc(S)c1` yielded a logD of 2.12.
For `Cc1ccc(S)cc1`, the logD was 3.27.
In the case of `Cc1ccc(C)c(S)c1`, the logD is reported as 3.92.
Work on `Sc1c(Cl)cccc1Cl` yielded a logD of 2.35.
`Cc1ccc(S)c(C)c1` gave a logD of 3.77.
With `COc1cccc(S)c1` the logD was 2.93.
Molecule `Cc1ccc(S)cc1C` has a logD of 3.62.
Work on `Sc1cccc(Cl)c1Cl` yielded a logD of 2.44.
Work on `Sc1ccc(Cl)cc1Cl` yielded a logD of 2.49.
Molecule `Sc1cccc(Br)c1` has a logD of 2.48.
Molecule `Fc1ccc(S)cc1` has a logD of 2.92.
With `Cc1cccc(S)c1` the logD was 3.13.

Source: the SangsterLogP compilation
